Results as given in ChEMBL document CHEMBL1140259, “Isomeric thiazole derivatives as ligands for the neuropeptide Y5 receptor” (Bioorg Med Chem Lett, 2005).
pIC50: −log10 of the molar value.

How the values were obtained:
[1] = target: T1, Neuropeptide Y receptor type 5 (Mus musculus, UniProt O70342); assay: Inhibitory concentration against mouse NPY5 receptor […]
T1 sequence (O70342 whole entry): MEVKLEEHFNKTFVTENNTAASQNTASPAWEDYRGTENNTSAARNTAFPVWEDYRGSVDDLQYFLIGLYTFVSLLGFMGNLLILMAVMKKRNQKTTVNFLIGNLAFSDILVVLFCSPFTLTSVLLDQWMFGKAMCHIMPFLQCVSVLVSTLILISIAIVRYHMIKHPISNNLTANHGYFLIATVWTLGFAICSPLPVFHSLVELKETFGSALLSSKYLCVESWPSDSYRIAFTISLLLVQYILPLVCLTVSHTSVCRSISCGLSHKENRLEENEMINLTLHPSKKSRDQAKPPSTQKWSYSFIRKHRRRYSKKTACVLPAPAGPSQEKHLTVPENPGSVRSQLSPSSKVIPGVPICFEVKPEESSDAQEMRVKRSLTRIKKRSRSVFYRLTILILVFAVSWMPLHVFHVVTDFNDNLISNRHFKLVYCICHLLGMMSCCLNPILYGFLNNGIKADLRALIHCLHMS

[2] = target: T2, Neuropeptide Y receptor type 5 (Mus musculus) (UniProt O70342); assay: Percent inhibition against mouse NPY5 receptor at 1 um
T2 sequence (whole entry): T1 sequence (O70342 whole entry)

Structure (SMILES)	pIC50 [1]	inhibition [2] [%]
Cc1ccccc1C(=O)c1csc(NCCCNS(=O)(=O)c2cccs2)n1	7.96	–
Cc1ccccc1C(=O)c1csc(NCCCNS(=O)(=O)c2cc(C(F)(F)F)ccc2Cl)n1	8.05	–
COc1cccc(S(=O)(=O)NCCCNc2ncc(C(=O)c3ccccc3C)s2)c1	7.96	–
COc1ccc(C)cc1S(=O)(=O)NCCCNc1ncc(C(=O)c2ccccc2C)s1	9.15	–
Cc1ccccc1C(=O)c1cnc(NCCCNS(=O)(=O)c2cc(C(F)(F)F)ccc2Cl)s1	9.07	–
Cc1ccccc1C(=O)c1csc(NCCCNS(=O)(=O)c2ccc(F)cc2)n1	–	16
Cc1ccccc1C(=O)c1cnc(NCCCNS(=O)(=O)c2cccc(F)c2)s1	8.26	–

Continued, values first:

pIC50 [1]	inhibition [2] [%]	Structure (SMILES)
7.77	–	COc1ccc(OC)c(S(=O)(=O)NCCCNc2nc(C(=O)c3ccccc3C)cs2)c1
8.80	–	COc1ccc(OC)c(S(=O)(=O)NCCCNc2ncc(C(=O)c3ccccc3C)s2)c1
5.00	–	Cc1ccccc1C(=O)c1cnc(NCCCNS(=O)(=O)c2ccc(F)cc2)s1
9.00	–	Cc1ccccc1C(=O)c1cnc(NCCCNS(=O)(=O)c2cccs2)s1
7.19	–	Cc1ccccc1C(=O)c1csc(NCCCNS(=O)(=O)c2cccc(F)c2)n1
–	12	COc1cccc(S(=O)(=O)NCCCNc2nc(C(=O)c3ccccc3C)cs2)c1
